Assays:
[1] = molecular target: XIAP (Homo sapiens, UniProt P98170); assay: fluorescence polarization competition with AVPFAQK; type: binding
[2] = molecular target: X-linked inhibitor of apoptosis protein (XIAP) BIR3 domain; assay: fluorescence polarisation

XIAP, sequence (P98170 241-356 limits assumed): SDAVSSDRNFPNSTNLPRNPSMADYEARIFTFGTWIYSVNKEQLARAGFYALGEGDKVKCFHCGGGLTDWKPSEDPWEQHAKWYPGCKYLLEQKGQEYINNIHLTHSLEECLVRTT

Molecule	IC50 [1] [nM]	IC50 [2] [nM]
C[C@H](N)C(=O)N[C@H]1CNC(=O)C[C@H]2CC[C@@H](C(=O)NC(c3ccccc3)c3ccccc3)N2C1=O [ZJ-1, (5 S ,8 S ,10aR)‐5‐((S)‐2‐aminopropanamido)‐N‐benzhydryl‐2,6‐dioxodecahydropyrrolo[1,2‐a][1,5] diazocine‐8‐carboxamide]	210	
AVPI [AVPI, N-terminal tetrapeptide binding motif of Smac/DIABLO (Ala-Val-Pro-Ile)]		1150

— publication PMC6331714 (ChemistryOpen, 2019)
